According to publication PMC11497058, “Ginsenoside Rg3 Restores Mitochondrial Cardiolipin Homeostasis via GRB2 to Prevent Parkinson's Disease” (Advanced Science, 2024):
Counter-ions that a name gives are not always drawn.

Biological target: T1, Growth Factor Receptor-Bound Protein 2 (GRB2) (Homo sapiens, UniProt P62993)
T1 construct: Recombinant His-tagged GRB2 (pET-28a, E. coli)
Test: bio-layer interferometry (ForteBio Octet); supported by thermal shift assay (CETSA) and LiP-SMap
Type: binding

| Structure (SMILES) | Kd [nM] |
| --- | --- |
| CC(C)=CCC[C@](C)(O)[C@H]1CC[C@]2(C)[C@@H]1[C@H](O)C[C@@H]1[C@@]3(C)CC[C@H](O[C@@H]4O[C@H](CO)[C@@H](O)[C@H](O)[C@H]4O[C@@H]4O[C@H](CO)[C@@H](O)[C@H](O)[C@H]4O)C(C)(C)[C@@H]3CC[C@]12C [Rg3, Ginsenoside Rg3] | 869 |

Biological target: GRB2 (Homo sapiens, UniProt P62993)
Test: biochemical
Set-up: Surface plasmon resonance screen of compounds binding to GRB2, KD
Source text: To further validate the universal impact of TRKA‐GRB2 axis‐targeted molecular in enhancing CL expression and ameliorating PD, we employed Surface Plasmon Resonance (SPR) technology^[ [58] ^] to screen compounds that bind to GRB2 (Figure 8a). Subsequently, we identified 11 compounds with a KD value at the […] (Table S9, Supporting Information). The viability of SH‐SY5Y cells exposed to mpp+ or 6‐OHDA increased upon treatment with TDF and [compound left out] (Figure S13a and b, Supporting Information). TDF acts as a prodrug of tenofovir, a nucleotide reverse transcriptase inhibitor.^[ [59] ^] On the other hand, [compound left out] is specially formulated for ophthalmological steroid‐based treatments.^[ [60] ^] Considering its oral administration capability, we selected TDF for further research (Figure S13c and d, Supporting Information). TDF facilitated the clearance of overexpressed A53T‐αSyn in SH‐SY5Y cells (Figure S13e and f, Supporting Information) and promoted the interaction between GRB2 and TRKA without affecting the interaction between GRB2 and EGFR in these cells (Figure 8b–d). Treatment with TDF enhanced CRLS1 expression and restored the decreased mitochondrial CL levels caused by A53T‐αSyn in SH‐SY5Y cells. However, knockdown of GRB2 or TRKA in SH‐SY5Y cells attenuated TDF‐induced effect (Figure 8e–g). Moreover, TDF increased TRKA phosphorylation, ERK phosphorylation, and CRLS1 expression, while GW441756 […] these changes (Figure S13g–j, Supporting Information). When SCH772984 was employed, it blocked the ability of TDF to increase ERK phosphorylation and CRLS1 expression (Figure S13k–m, Supporting Information). The impairment of exercise ability was alleviated following TDF (80 mg kg^−1) treatment, resulting in an increase in the distance travelled by A53T‐αSyn‐treated mice (Figure 8h,i). […] Western blotting was performed to evaluate the expression of TRKA and EGFR in cell lysates immunoprecipitated with an anti‐GRB2 antibody (b). Quantification of TRKA levels (c) and EGFR levels (d). e,f) Representative western blot images of CRLS1, GRB2, TRKA in SH‐SY5Y cells treated with TDF (10 µM) or DMSO (0.1%) for 24 h after transfection with Scramble, GRB2 or TRKA siRNAs for 24 h. Quantification of CRLS1 levels (f). g) SH‐SY5Y cells were treated with TDF (10 µM) or DMSO (0.1%) for 24 h after transfection with Scramble, GRB2 or TRKA siRNAs for 24 h. Quantification of mitochondrial CL in SH‐SY5Y cells. Three independent experiments per condition were performed in (b–g). h) Movement track in the open field test. i) Total distance travelled in the open field. j) Time required to descend the pole. k) Time required to fall off the rotarod. (n = 10 mice per group in (h–k). l) Immunohistochemical staining of TH^+ neurons (scale bar = 100 µm). m) Quantification of TH^+ neurons. (n = 3 mice per group in l, m). Data are normalised to those of the DMSO group (c,d) and the Scramble_DMSO group (f). Mean ± standard error of the mean is presented. *p < 0.05, **p < 0.01, ***p < 0.001, ****p < 0.0001, ns, not significant. Student's two‐tailed unpaired t‐test (c,d), two‐way ANOVA with Sidak's multiple comparisons test (f,g,i,j,k and m). Source data are provided in the Source Data file.

| Structure (SMILES) | Kd [nM] |
| --- | --- |
| C/C(=C\CO)CCC[C@H](C)CCC[C@H](C)CCCC(C)C [Phytol] | 1470 |
| CC(C)N(CCNC(=O)CN1CCCC1=O)C(C)C [Pramiracetam] | 99.6 |
| CC(N)C12CC3CC(CC(C3)C1)C2 (centres unmarked) [Rimantadine] | 160 |
| Nc1nc(=O)n([C@@H]2CS[C@H](CO)O2)cc1F [Emtricitabine] | 15.2 |
| CC(C)OC(=O)OCOP(=O)(CO[C@H](C)Cn1cnc2c(N)ncnc21)OCOC(=O)OC(C)C [TDF, Tenofovir Disoproxil Fumarate] | 74.3 |
| CCCC(=O)O[C@]1(C(=O)CCl)[C@@H](C)C[C@H]2[C@@H]3CCC4=CC(=O)C=C[C@]4(C)[C@@]3(F)C(=O)C[C@@]21C [Clobetasone butyrate] | 100 |

Further lines, results first:

| Kd [nM] | Structure (SMILES) |
| --- | --- |
| 192 | COC(c1ccccc1)(c1ccccc1)[C@H](Oc1nc(C)cc(C)n1)C(=O)O [Ambrisentan] |
| 3730 | O=C(O)c1ccc2nc(-c3cc(Cl)cc(Cl)c3)oc2c1 [tafamidis] |
| 262 | O=C1c2ccccc2-c2n[nH]c3cccc1c23 [SP600125] |
| 241 | NC(=O)N1c2ccccc2CC(=O)c2ccccc21 [Oxcarbazepine] |
